Measurements as given in ChEMBL document CHEMBL1201862, “PubChem BioAssay data set” (2004).
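Values below derive from 48-hour exposures of cells grown in 96-well plates, with endpoints linearly interpolated between the two concentrations bracketing the appropriate inhibition level. The concentration for 50% growth inhibition is given as GI50.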 Active and inactive are the calls of the source. Rule as the data show it: active = GI50 up to about 1.1 µM and inactive = higher.

Legend:
Assay in all cases: NCI-60 cell line screen, 48 h
[1] = tested on: SK-MEL-5
[2] = tested on: NCI-H23
[3] = tested on: HCT-15
[4] = tested on: KM-20L2
[5] = tested on: DMS-114
[6] = tested on: MOLT-4
[7] = tested on: EKVX
[8] = tested on: LOX IMVI
[9] = tested on: HT-29
[10] = tested on: CCRF-CEM
[11] = tested on: CAKI-1
[12] = tested on: DMS-273
[13] = tested on: SF-539
[14] = tested on: A498
[15] = tested on: HL-60
[16] = tested on: A549
[17] = tested on: SNB-19
[18] = tested on: M14
[19] = tested on: HCC 2998
[20] = tested on: UACC-257
[21] = tested on: SR
[22] = tested on: OVCAR-3
[23] = tested on: HOP-18
[24] = tested on: DLD-1
[25] = tested on: K562
[26] = tested on: NCI-H460
[27] = tested on: RXF 393
[28] = tested on: SK-OV-3
[29] = tested on: SN12C
[30] = tested on: TK-10
[31] = tested on: SNB-75
[32] = tested on: U-251
[33] = tested on: NCI-H522
[34] = tested on: RPMI-8226
[35] = tested on: KM12
[36] = tested on: HOP-62
[37] = tested on: UACC-62
[38] = tested on: ACHN
[39] = tested on: 786-0
[40] = tested on: SK-MEL-28
[41] = tested on: LXFL 529
[42] = tested on: SNB-78
[43] = tested on: Malme-3M
[44] = tested on: SW-620
[45] = tested on: M19-MEL
[46] = tested on: SK-MEL-2
[47] = tested on: NCI-H226
[48] = tested on: HOP-92
[49] = tested on: UO-31
[50] = tested on: IGROV-1
[51] = tested on: COLO 205
[52] = tested on: SF-268
[53] = tested on: HCT-116
[54] = tested on: OVCAR-8
[55] = tested on: OVCAR-5
[56] = tested on: SF-295
[57] = tested on: XF498
[58] = tested on: OVCAR-4

O=C(O)c1ccc(C2=Cc3cc(Cl)ccc3OC2)cc1
GI50 [1]: > 100 µM (inactive)
GI50 [2]: > 100 µM (inactive)
GI50 [3]: > 100 µM
GI50 [4]: > 100 µM (inactive)
GI50 [5]: > 100 µM (inactive)
GI50 [6]: > 100 µM (inactive)
GI50 [7]: > 100 µM (inactive)
GI50 [8]: > 100 µM (inactive)
GI50 [9]: > 100 µM (inactive)
GI50 [10]: > 100 µM (inactive)
GI50 [11]: > 100 µM (inactive)
GI50 [12]: > 100 µM (inactive)
GI50 [13]: > 100 µM (inactive)
GI50 [14]: > 100 µM (inactive)
GI50 [15]: > 100 µM (inactive)
GI50 [16]: > 100 µM (inactive)
GI50 [17]: > 100 µM (inactive)
GI50 [18]: > 100 µM (inactive)
GI50 [19]: > 100 µM (inactive)
GI50 [20]: > 100 µM (inactive)
GI50 [21]: > 100 µM (inactive)
GI50 [22]: > 100 µM (inactive)
GI50 [23]: 55.1 µM (inactive)
GI50 [24]: > 100 µM (inactive)
GI50 [25]: > 100 µM (inactive)
GI50 [26]: > 100 µM (inactive)
GI50 [27]: > 100 µM (inactive)
GI50 [28]: > 100 µM (inactive)
GI50 [29]: > 100 µM (inactive)
GI50 [30]: > 100 µM (inactive)
GI50 [31]: 22 µM (inactive)
GI50 [32]: > 100 µM (inactive)
GI50 [33]: > 100 µM (inactive)
GI50 [34]: > 100 µM (inactive)
GI50 [35]: > 100 µM (inactive)
GI50 [36]: > 100 µM (inactive)
GI50 [37]: > 100 µM (inactive)
GI50 [38]: > 100 µM (inactive)
GI50 [39]: > 100 µM (inactive)
GI50 [40]: > 100 µM (inactive)
GI50 [41]: > 100 µM (inactive)
GI50 [42]: > 100 µM (inactive)
GI50 [43]: > 100 µM (inactive)
GI50 [44]: > 100 µM (inactive)
GI50 [45]: > 100 µM (inactive)
GI50 [46]: > 100 µM (inactive)
GI50 [47]: > 100 µM (inactive)
GI50 [48]: > 100 µM (inactive)
GI50 [49]: 90.4 µM (inactive)
GI50 [50]: > 100 µM (inactive)
GI50 [51]: > 100 µM (inactive)
GI50 [52]: > 100 µM (inactive)
GI50 [53]: > 100 µM (inactive)
GI50 [54]: > 100 µM (inactive)
GI50 [55]: > 100 µM (inactive)
GI50 [56]: > 100 µM (inactive)
GI50 [57]: > 100 µM (inactive)

N#CC1C(C#N)C2(c3ccccc3)C(c3ccccc3)=NN(c3ccccc3)CC12 (stereo unspecified)
GI50 [1]: > 100 µM (inactive)
GI50 [3]: > 100 µM
GI50 [4]: > 100 µM (inactive)
GI50 [5]: 59.4 µM (inactive)
GI50 [6]: 16.8 µM (inactive)
GI50 [7]: > 100 µM (inactive)
GI50 [8]: > 100 µM (inactive)
GI50 [10]: > 100 µM (inactive)
GI50 [11]: > 100 µM (inactive)
GI50 [12]: > 100 µM (inactive)
GI50 [13]: > 100 µM (inactive)
GI50 [14]: > 100 µM (inactive)
GI50 [15]: > 100 µM (inactive)
GI50 [16]: > 100 µM (inactive)
GI50 [17]: > 100 µM (inactive)
GI50 [18]: > 100 µM (inactive)
GI50 [19]: > 100 µM (inactive)
GI50 [20]: > 100 µM (inactive)
GI50 [21]: > 100 µM (inactive)
GI50 [22]: > 100 µM (inactive)
GI50 [23]: > 100 µM (inactive)
GI50 [24]: > 100 µM (inactive)
GI50 [25]: > 100 µM (inactive)
GI50 [26]: > 100 µM (inactive)
GI50 [27]: > 100 µM (inactive)
GI50 [29]: > 100 µM (inactive)
GI50 [30]: > 100 µM (inactive)
GI50 [31]: 36.4 µM (inactive)
GI50 [32]: > 100 µM (inactive)
GI50 [34]: > 100 µM (inactive)
GI50 [35]: > 100 µM (inactive)
GI50 [37]: 94.8 µM (inactive)
GI50 [58]: 95.3 µM (inactive)
GI50 [38]: > 100 µM (inactive)
GI50 [39]: > 100 µM (inactive)
GI50 [40]: > 100 µM (inactive)
GI50 [41]: > 100 µM (inactive)
GI50 [42]: > 100 µM (inactive)
GI50 [43]: > 100 µM (inactive)
GI50 [44]: > 100 µM (inactive)
GI50 [45]: > 100 µM (inactive)
GI50 [46]: > 100 µM (inactive)
GI50 [47]: > 100 µM (inactive)
GI50 [49]: > 100 µM (inactive)
GI50 [50]: > 100 µM (inactive)
GI50 [53]: > 100 µM (inactive)
GI50 [54]: > 100 µM (inactive)
GI50 [55]: > 100 µM (inactive)
GI50 [56]: > 100 µM (inactive)
GI50 [57]: > 100 µM (inactive)

C/C(=N/OCCC(=O)O)C1CC1
GI50 [1]: > 100 µM (inactive)
GI50 [2]: > 100 µM (inactive)
GI50 [3]: > 100 µM
GI50 [4]: > 100 µM (inactive)
GI50 [5]: > 100 µM (inactive)
GI50 [7]: > 100 µM (inactive)
GI50 [8]: > 100 µM (inactive)
GI50 [9]: > 100 µM (inactive)
GI50 [10]: > 100 µM (inactive)
GI50 [11]: > 100 µM (inactive)
GI50 [12]: > 100 µM (inactive)
GI50 [13]: > 100 µM (inactive)
GI50 [15]: > 100 µM (inactive)
GI50 [16]: > 100 µM (inactive)
GI50 [17]: > 100 µM (inactive)
GI50 [18]: > 100 µM (inactive)
GI50 [19]: > 100 µM (inactive)
GI50 [21]: 90.4 µM (inactive)
GI50 [22]: > 100 µM (inactive)
GI50 [23]: > 100 µM (inactive)
GI50 [24]: > 100 µM (inactive)
GI50 [25]: > 100 µM (inactive)
GI50 [26]: > 100 µM (inactive)
GI50 [27]: > 100 µM (inactive)
GI50 [28]: > 100 µM (inactive)
GI50 [29]: > 100 µM (inactive)
GI50 [30]: > 100 µM (inactive)
GI50 [31]: > 100 µM (inactive)
GI50 [32]: > 100 µM (inactive)
GI50 [33]: > 100 µM (inactive)
GI50 [34]: > 100 µM (inactive)
GI50 [35]: > 100 µM (inactive)
GI50 [36]: > 100 µM (inactive)
GI50 [37]: > 100 µM (inactive)
GI50 [58]: > 100 µM (inactive)
GI50 [38]: > 100 µM (inactive)
GI50 [39]: > 100 µM (inactive)
GI50 [40]: > 100 µM (inactive)
GI50 [41]: > 100 µM (inactive)
GI50 [42]: > 100 µM (inactive)
GI50 [43]: > 100 µM (inactive)
GI50 [44]: > 100 µM (inactive)
GI50 [45]: > 100 µM (inactive)
GI50 [46]: > 100 µM (inactive)
GI50 [47]: > 100 µM (inactive)
GI50 [48]: > 100 µM (inactive)
GI50 [49]: > 100 µM (inactive)
GI50 [50]: > 100 µM (inactive)
GI50 [51]: > 100 µM (inactive)
GI50 [52]: > 100 µM (inactive)
GI50 [53]: > 100 µM (inactive)
GI50 [54]: > 100 µM (inactive)
GI50 [56]: > 100 µM (inactive)
GI50 [57]: > 100 µM (inactive)
